# Read-outs that look alike come from different tables or passages of the source.
# Tests used:
# E. coli AG100 A [1] = assay: Real-time ethidium bromide accumulation (efflux pump inhibition); type: cell-based, Escherichia coli; conditions: compounds at ¼ MIC, EB 1 μg/mL, minute 30
# Description: (§1) Since multidrug resistance EPs are very important factors contributing to multidrug resistance (MDR) in both Gram-positive and Gram-negative bacteria, the inhibition of these pumps could reverse the resistant phenotype and restore the activity of antibiotics. The effect of compounds on ethidium bromide (EB) accumulation was determined by the automated EB method. This assay was used to determine how much of the fluorescent dye and pump substrate EB was accumulated by the bacterial cells in the presence of the tested compounds. The real-time accumulation of EB was monitored for 30 min in both S. aureus and E. coli strains.
# (§2) The accumulation of the efflux pump substrate EB was monitored by the automated EB method using a LightCycler real-time thermocycler (LightCycler 1.5, Roche, Indianapolis, IN, USA). An aliquot of an overnight culture of the S. aureus strains in TSB medium was inoculated into fresh TSB medium, and it was incubated until it reached an optical density (OD) of 0.6 at 600 nm. In the case of E. coli strains, the medium applied in the assay was LB broth; the preparation of the inoculum was similar to the one of S. aureus. The cells were washed with phosphate buffered saline (PBS; pH 7.4) and centrifuged at 13,000 × g for 3 min, the pellets were re-suspended in PBS (pH 7.4), and the OD was calibrated to 0.6 at 600 nm. The compounds were measured at ¼ MIC concentration (in double-concentrated form) to the EB solution in PBS. The final concentration of EB was determined according to the MIC and the fluorescent signal produced by this amount of EB. In the case of all strains, the concentration of EB was 1 μg/mL. Then, 10 μL of the EB solution plus the compound were pipetted into standard glass capillary tubes of 20 µL maximum volume (Roche, Indianapolis, USA), and 10 μL of bacterial culture (OD of 0.6 at 600 nm) were transferred to the capillaries. The capillaries containing the samples were placed into the carousel, and the fluorescence was monitored at the FL-2 channel in every minute on a real-time basis.
# (§3) Based on the data obtained, the relative fluorescence index (RFI) of the last time point (minute 30) was determined as follows:RFI = (RFtreated − RFuntreated)/RFuntreated(1) where RFtreated is the relative fluorescence (RF) at the last time point of the EB retention curve in the presence of an inhibitor, and RFuntreated is the relative fluorescence at the last time point of the EB retention curve of the untreated control having the solvent control (DMSO).
# S. aureus ATCC 25923 = assay: as above; type: cell-based, Staphylococcus aureus; conditions: compounds at ¼ MIC, EB 1 μg/mL, minute 30
# Description: as §1, §2, §3
# S. aureus 272123 (MRSA) [2] = assay: as above; type: cell-based, Staphylococcus aureus; conditions: compounds at ¼ MIC (3 at 12.5 µM), VER at 25 µM, EB 1 μg/mL, minute 30
# Description: as §1, §2, §3
# S. aureus 272123 (MRSA) [3] = assay: Minimum inhibitory concentration (broth microdilution, CLSI); type: cell-based, Staphylococcus aureus; conditions: 18 h, visual inspection
# Description: (§4) The compounds were further investigated against two Gram-positive strains, S. aureus ATCC 25923 (MSSA), used as the methicillin susceptible reference strain, and the methicillin- and ofloxacin-resistant S. aureus 272123 clinical isolate (MRSA), which was given by Prof. Dr. Leonard Amaral (Institute of Hygiene and Tropical Medicine, Lisbon, Portugal).
# (§5) The minimum inhibitory concentrations (MICs) of compounds were determined in 96-well plates based on the Clinical and Laboratory Standard Institute guidelines (CLSI guidelines). The compounds were diluted in 100 μL of MHB. Then, 10^−4 dilution of an overnight bacterial culture in 100 μL of medium were added to each well, with the exception of the medium control wells.
# [4] = test system: Staphylococcus aureus ATCC 25923; assay: as above; type: cell-based; conditions: S. aureus ATCC 25923, 18 h, visual inspection
# Description: as §4, §5
# E. coli AG100 [5] = assay: as above; type: cell-based, Escherichia coli
# Description: The strains were donated by Prof. Dr. Hiroshi Nikaido (Department of Molecular and Cell Biology and Chemistry, University of California, Berkeley, CA, USA).
# as §5
# [6] = test system: MRC-5 human embryonal lung fibroblast cell line; assay: Cytotoxicity assay (MTT); type: cell-based
# Description: The MRC-5 human embryonic lung fibroblast cell line (ATCC CCL-171; provider: LGC Promochem, Teddington, UK) was used in the experiments. The cells were cultivated in Eagle’s Minimal Essential Medium (EMEM; Sigma–Aldrich, St. Louis, MO, USA), supplemented with 1% non-essential amino acid mixture, 10% heat-inactivated fetal bovine serum, 2 mM L-glutamine, 1 mM Na-pyruvate, nystatin, and a penicillin–streptomycin mixture in concentrations of 100 U/L and 10 mg/L, respectively. The supplementary components were obtained from Sigma–Aldrich, St. Louis, MO, USA. The cell culture was kept in a humidified atmosphere (5% CO2, 95% air) at 37 °C.
# The activity of increasing concentrations of the compounds on cell growth was determined in 96-well flat-bottomed microtiter plates by two-fold serial dilutions of the benzoxazole derivatives. The adherent human embryonic lung fibroblast cells (10^4/well) was seeded in EMEM medium in 96-well microtiter plates for 4 h prior to the assay. The serial dilutions of the compounds were made in a separate plate, and then pipetted to the plates containing the MRC-5 cell line. Culture plates were incubated at 37 °C for 24 h; at the end of the incubation period, 20 μL of MTT (3-(4,5-dimethylthiazol-2-yl)-2,5-diphenyltetrazolium bromide) solution (from a 5 mg/mL stock solution) was measured to each well. After the incubation at 37 °C for 4 h, 100 μL of sodium dodecyl sulfate (SDS) solution (10% SDS in 0.01 M HCl) was added to each well to dissolve the formazan crystals and the samples were further incubated at 37 °C overnight. Cell growth was calculated by measuring the OD at 540 nm (ref. 630 nm) with a Multiscan EX ELISA reader. The cytotoxicity was expressed as IC50 values, defined as the inhibitory dose that reduces the growth of the cells exposed to the tested compounds by 50%.
# [7] = test system: Chromobacterium violaceum 026; assay: Minimum inhibitory concentration (broth microdilution, CLSI); type: cell-based; conditions: C. violaceum 026
# Description: (§6) The following bacterial strains were applied in the QS tests: C. violaceum 026 as sensor strain and E. cloacae 31298 isolated from clinical wound (used as N-acyl-homoserine lactone (AHL) producer); this strain induced pigment production by C. violaceum and is a model strain to study QS interactions.
# as §5
# [8] = test system: Enterobacter cloacae 31298; assay: as above; type: cell-based; conditions: E. cloacae 31298
# Description: as §6, §5
# E. coli AG100 [9] = assay: Real-time ethidium bromide accumulation (efflux pump inhibition, AcrAB-TolC); type: cell-based, Escherichia coli; conditions: compounds at ¼ MIC, EB 1 μg/mL, minute 30
# Description: as §1, §2, §3
# E. coli AG100 A [10] = assay: Minimum inhibitory concentration (broth microdilution, CLSI); type: cell-based, Escherichia coli; conditions: 18 h
# Description: Wild-type E. coli K-12 AG100 strain (argE3 thi-1 rpsL xyl mtl Δ(gal-uvrB) supE44) expressing the AcrAB TolC EP at its basal level and its AcrAB-TolC deleted mutant E. coli K-12 AG100 A strain. The strains were donated by Prof. Dr. Hiroshi Nikaido (Department of Molecular and Cell Biology and Chemistry, University of California, Berkeley, CA, USA).
# as §5
# S. aureus MRSA 272123 = assay: Resistance modulation (MIC reduction) assay with CIP and TET; type: cell-based, Staphylococcus aureus; conditions: antibiotic alone
# Description: (§7) The resistance modulation effects of compounds with ciprofloxacin (CIP) and tetracycline (TET) antibiotics were evaluated by the MIC reduction method on the Gram-negative E. coli AG100, AG100 A, and the Gram-positive S. aureus ATCC and MRSA strains.
# (§8) The chemosensitizing activity of benzoxazole-type ligands and their metal complexes was determined based on the MIC values of the antibiotics in the presence of sub-inhibitory concentrations of the compounds (¼ MIC) in both Gram-negative and Gram-positive strains. The MICs were determined in strains by the two-fold broth microdilution method in 96-well plates, using serial dilutions of TET and CIP. The first four rows contained two-fold dilutions of antibiotics, and combinations of the TET and CIP and tested compounds were transferred into the last four rows. The 10^−4 dilution of an overnight bacterial culture in 50 μL of MHB was then measured to each well, except for the medium control wells. The plates were kept at 37 °C for 18 h. MIC values of antibiotics and their combination with tested compounds were detected by visual inspection.
# E. coli AG100 [11] = assay: as above; type: cell-based, Escherichia coli; conditions: antibiotic alone
# Description: as §7, §8
# [12] = Staphylococcus aureus, ATCC25923
# [13] = E. coli AG100, 18 h, visual inspection, read-out: MIC
# [14] = E. coli AG100 A (AcrAB-TolC deleted), visual inspection
structure (smiles),measurement,setting,value
"O=C(Cc1nc2ccccc2o1)C(F)(F)F [Compound 1, 2-trifluoroacetonylbenzoxazole]",Relative fluorescence index (RFI),E. coli AG100 A [1],0
same,Relative fluorescence index (RFI),S. aureus ATCC 25923,−0.11
same,Relative fluorescence index (RFI),S. aureus 272123 (MRSA) [2],−0.14
same,MIC,S. aureus 272123 (MRSA) [3],12.5 µM
same,MIC,S. aureus 272123 (MRSA) [3]; Staphylococcus aureus,12.5 µM
same,MIC,[4]; [12],25 µM
same,MIC,"E. coli AG100 [5]; Escherichia coli, AG100, 18 h",50 µM
same,Cytotoxic effect (class in words),[6]; 24 h,no (IC50 > 100 µM)
same,IC50,"[6]; Homo sapiens, MRC5, 24 h",> 100 µM
same,MIC,[7]; Chromobacterium violaceum,> 100 µM
same,MIC,[8]; Enterobacter cloacae,> 100 µM
same,Relative fluorescence index (RFI),E. coli AG100 [9],−0.35
same,MIC,"E. coli AG100 A [10]; Escherichia coli, AG100A",50 µM
"CN(C)CCCN1c2ccccc2Sc2ccc(Cl)cc21 [CPZ, Chlorpromazine, reference compound]",Relative fluorescence index (RFI),E. coli AG100 A [1],0.48
same,Relative fluorescence index (RFI),S. aureus ATCC 25923,0.17
same,Relative fluorescence index (RFI),E. coli AG100 [9],0.38
[O-]C(=Cc1nc2ccccc2o1)C(F)(F)F.[O-]C(=Cc1nc2ccccc2o1)C(F)(F)F.[Pd+2] [Compound 10],Relative fluorescence index (RFI),E. coli AG100 A [1],0
same,Relative fluorescence index (RFI),S. aureus ATCC 25923,0
same,Relative fluorescence index (RFI),S. aureus 272123 (MRSA) [2],0
same,MIC,S. aureus 272123 (MRSA) [3],>100 µM
same,MIC,[4],>100 µM
same,MIC,E. coli AG100 [5]; [13],>100 µM
same,Cytotoxic effect (class in words),[6]; 24 h,weak (IC50: 61–100)
same,IC50,[6]; 24 h,89.1 µM
same,MIC,[7],>100 µM
same,MIC,[8],>100 µM
same,Relative fluorescence index (RFI),E. coli AG100 [9],−0.06
same,MIC,E. coli AG100 A [10]; [14],>100 µM
"O=C(O)c1cn(C2CC2)c2cc(N3CCNCC3)c(F)cc2c1=O [CIP, ciprofloxacin, reference compound]",MIC of antibiotic in the absence of the compounds,S. aureus MRSA 272123,12.5 µM
same,MIC of antibiotic in the absence of the compounds,E. coli AG100 [11],0.016 µM
[O-]C(=Cc1nc2ccccc2o1)C(F)F.[O-]C(=Cc1nc2ccccc2o1)C(F)F.[Zn+2] [Compound 6],Relative fluorescence index (RFI),E. coli AG100 A [1],−0.15
same,Relative fluorescence index (RFI),S. aureus ATCC 25923,0.08
same,Relative fluorescence index (RFI),S. aureus 272123 (MRSA) [2],−0.02
same,MIC,S. aureus 272123 (MRSA) [3],12.5 µM
same,MIC,[4],25 µM
same,MIC,E. coli AG100 [5]; [13],50 µM
same,Cytotoxic effect (class in words),[6]; 24 h,strong (IC50: 0–30)
same,IC50,[6]; 24 h,4.72 µM
same,MIC,[7],>100 µM
same,MIC,[8],>100 µM
same,Relative fluorescence index (RFI),E. coli AG100 [9],0.08
same,MIC,E. coli AG100 A [10]; [14],12.5 µM
"CN(C)[C@@H]1C(O)=C(C(N)=O)C(=O)[C@@]2(O)C(O)=C3C(=O)c4c(O)cccc4[C@@](C)(O)[C@H]3C[C@@H]12 [TET, tetracycline, reference compound]",MIC of antibiotic in the absence of the compounds,S. aureus MRSA 272123,6.25 µM
same,MIC of antibiotic in the absence of the compounds,E. coli AG100 [11],50 µM
O=C(Cc1nc2ccccc2o1)C(F)(F)Cl [Compound 2],Relative fluorescence index (RFI),E. coli AG100 A [1],−0.01
same,Relative fluorescence index (RFI),S. aureus ATCC 25923,−0.07
same,Relative fluorescence index (RFI),S. aureus 272123 (MRSA) [2],−0.07
same,MIC,S. aureus 272123 (MRSA) [3],3.125 µM
same,MIC,S. aureus 272123 (MRSA) [3]; Staphylococcus aureus,3.12 µM
same,MIC,[4]; [12],12.5 µM
same,MIC,"E. coli AG100 [5]; Escherichia coli, E. coli AG100, 18 h, visual inspection, read-out: MIC",50 µM
same,Cytotoxic effect (class in words),[6]; 24 h,no (IC50 > 100 µM)
same,IC50,"[6]; Homo sapiens, MRC5, 24 h",> 100 µM
same,MIC,[7]; Chromobacterium violaceum,> 100 µM
same,MIC,[8]; Enterobacter cloacae,> 100 µM
same,Relative fluorescence index (RFI),E. coli AG100 [9],0.17
same,MIC,"E. coli AG100 A [10]; Escherichia coli, AG100A",25 µM
